Values joined by “and” are separate entries in the source; they are usually repeats but may differ in a detail not shown here. Identical values can stand only once. Counter-ions that a name gives are not always drawn.
Assays:
KOR [1] = target: T1, KOR (Mus musculus, UniProt P33534); test: biochemical; details: read-out: KOR [35S]GTPγS Binding % Emax of U50,488H
MOR = MOR (Mus musculus, UniProt P42866); test: biochemical; type: biochemical; details: for Emax: read-out: MOR [35S]GTPγS Binding % Emax of DAMGO
DOR [2] = target: T2, DOR (Homo sapiens, UniProt P41143); test: biochemical; details: read-out: DOR [35S]GTPγS Binding % Emax of SNC80
DOR [3] = target: T2, DOR; test: biochemical; type: binding
KOR [4] = target: T1, KOR; type: binding

T1 sequence (P33534 whole entry): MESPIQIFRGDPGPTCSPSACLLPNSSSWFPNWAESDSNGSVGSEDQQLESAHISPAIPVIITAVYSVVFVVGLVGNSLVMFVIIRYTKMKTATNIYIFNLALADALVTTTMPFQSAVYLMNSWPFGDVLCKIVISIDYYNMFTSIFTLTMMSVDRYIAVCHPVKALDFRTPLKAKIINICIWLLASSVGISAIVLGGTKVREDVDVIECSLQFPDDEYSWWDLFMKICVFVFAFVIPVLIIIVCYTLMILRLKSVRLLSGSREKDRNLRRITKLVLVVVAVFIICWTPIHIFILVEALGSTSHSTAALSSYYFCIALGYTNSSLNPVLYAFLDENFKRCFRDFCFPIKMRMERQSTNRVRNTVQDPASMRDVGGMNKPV
Chain of MOR (P42866 whole entry): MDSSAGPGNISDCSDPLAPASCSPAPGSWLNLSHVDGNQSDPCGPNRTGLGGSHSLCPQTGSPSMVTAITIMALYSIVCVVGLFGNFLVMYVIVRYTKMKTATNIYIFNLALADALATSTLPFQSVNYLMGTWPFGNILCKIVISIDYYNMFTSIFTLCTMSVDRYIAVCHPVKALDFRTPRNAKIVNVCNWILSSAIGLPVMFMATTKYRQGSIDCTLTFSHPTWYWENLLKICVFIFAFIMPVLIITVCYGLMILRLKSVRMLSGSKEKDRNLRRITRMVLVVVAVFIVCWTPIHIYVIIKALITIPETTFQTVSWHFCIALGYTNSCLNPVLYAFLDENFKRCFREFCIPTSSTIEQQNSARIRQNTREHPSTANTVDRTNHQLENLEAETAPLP
T2 sequence (P41143 whole entry): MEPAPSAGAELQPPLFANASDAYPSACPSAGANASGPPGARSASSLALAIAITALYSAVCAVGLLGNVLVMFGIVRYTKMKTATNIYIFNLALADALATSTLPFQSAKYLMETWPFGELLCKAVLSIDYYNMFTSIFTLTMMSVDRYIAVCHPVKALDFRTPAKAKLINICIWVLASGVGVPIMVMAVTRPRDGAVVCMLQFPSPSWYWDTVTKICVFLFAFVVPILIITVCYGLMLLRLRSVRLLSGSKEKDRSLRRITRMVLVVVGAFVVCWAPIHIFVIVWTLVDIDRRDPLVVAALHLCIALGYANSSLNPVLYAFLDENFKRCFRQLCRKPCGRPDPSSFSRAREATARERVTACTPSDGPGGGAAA

Row | SMILES | Emax (KOR [1]) [%] | MOR [35S]GTPγS Binding % Emax of DAMGO (MOR) [%] | Emax (DOR [2]) [%] | Selectivity δ/μ (DOR [3]) | Emax (MOR) [%] | Selectivity κ/μ (KOR [4]) | Ki (DOR [3]) [nM]
1 | Cl.O=C(N[C@H]1CC[C@@]2(O)[C@H]3Cc4ccc(O)c5c4[C@@]2(CCN3CC2CC2)[C@H]1O5)c1ccc[nH]1 [Compound 1, 17-Cyclopropylmethyl-3,14β-dihydroxy-4,5α-epoxy-6a-[(2′-pyrrolyl)carboxamido]morphinan Hydrochloride] | 43.4 ± 1.36 | 12.11 ± 2.64 | 50.9 ± 5.25 | – | – | – | –
2 | Cl.O=C(Cc1ccc[nH]1)N[C@H]1CC[C@@]2(O)[C@H]3Cc4ccc(O)c5c4[C@@]2(CCN3CC2CC2)[C@H]1O5 [Compound 3, 17-Cyclopropylmethyl-3,14β-dihydroxy-4,5α-epoxy-6a-[2′-(2′-pyrrolyl)acetamido]morphinan Hydrochloride] | – | – | – | 8 | 25 ± 2.61 | 6 | –
3 | Cl.O=C(Cc1ccc[nH]1)N[C@@H]1CC[C@@]2(O)[C@H]3Cc4ccc(O)c5c4[C@@]2(CCN3CC2CC2)[C@H]1O5 [Compound 4, 17-Cyclopropylmethyl-3,14β-dihydroxy-4,5α-epoxy-6β-[2′-(2′-pyrrolyl)acetamido]morphinan Hydrochloride] | – | – | – | 152 | 44.2 ± 1.52 | 8 | –
4 | Cl.O=C(CCc1ccc[nH]1)N[C@H]1CC[C@@]2(O)[C@H]3Cc4ccc(O)c5c4[C@@]2(CCN3CC2CC2)[C@H]1O5 [Compound 5, 17-Cyclopropylmethyl-3,14β-dihydroxy-4,5α-epoxy-6α[3′-(2′-pyrrolyl)propanamido]morphinan Hydrochloride] | – | – | – | – | 24 ± 3.59 | – | –
5 | Cl.O=C(CCc1ccc[nH]1)N[C@@H]1CC[C@@]2(O)[C@H]3Cc4ccc(O)c5c4[C@@]2(CCN3CC2CC2)[C@H]1O5 [Compound 6, 17-Cyclopropylmethyl-3,14β-dihydroxy-4,5α-epoxy-6β-[3′-(2′-pyrrolyl)propanamido]morphinan Hydrochloride] | – | – | – | 70 | 39.3 ± 3.16 | 2 | –
6 | Cl.O=C(N[C@H]1CC[C@@]2(O)[C@H]3Cc4ccc(O)c5c4[C@@]2(CCN3CC2CC2)[C@H]1O5)c1cc[nH]c1 [Compound 7, 17-Cyclopropylmethyl-3,14β-dihydroxy-4,5α-epoxy-6α-[(3′-pyrrolyl)carboxamido]morphinan Hydrochloride] | – | 16.65 ± 1.25 | – | 31 | – | 2 | –
7 | Cl.O=C(Cc1cc[nH]c1)N[C@H]1CC[C@@]2(O)[C@H]3Cc4ccc(O)c5c4[C@@]2(CCN3CC2CC2)[C@H]1O5 [Compound 9, 17-Cyclopropylmethyl-3, 14β-dihydroxy-4,5α-epoxy-6α-[(3′-pyrrolyl)acetamido]morphinan Hydrochloride] | – | – | – | 4 | 31.6 ± 2.87 | 5 | –
8 | Cl.O=C(Cc1cc[nH]c1)N[C@@H]1CC[C@@]2(O)[C@H]3Cc4ccc(O)c5c4[C@@]2(CCN3CC2CC2)[C@H]1O5 [Compound 10, 17-Cyclopropylmethyl-3,14β-dihydroxy-4,5α-epoxy-6β-[(3′-pyrrolyl)acetamido]morphinan Hydrochloride] | – | – | – | – | 53.3 ± 0.95 | – | –
9 | Cl.O=C(CCc1cc[nH]c1)N[C@@H]1CC[C@@]2(O)[C@H]3Cc4ccc(O)c5c4[C@@]2(CCN3CC2CC2)[C@H]1O5 [Compound 12] | – | – | – | 164 | 37.7 ± 0.87 | 7 | –
10 | Cl.O=C(N[C@H]1CC[C@@]2(O)[C@H]3Cc4ccc(O)c5c4[C@@]2(CCN3CC2CC2)[C@H]1O5)c1ccco1 [Compound 13, 17-Cyclopropylmethyl-3,14β-dihydroxy-4,5α-epoxy-6α-[(2′furanyl)carboxamido]morphinan Hydrochloride] | – | – | – | 62.83 and 63 | 21.8 ± 5.19 | 3.83 and 4 | –
11 | Cl.O=C(N[C@@H]1CC[C@@]2(O)[C@H]3Cc4ccc(O)c5c4[C@@]2(CCN3CC2CC2)[C@H]1O5)c1ccco1 [Compound 14, 17-Cyclopropylmethyl-3,14β-dihydroxy-4,5α-epoxy-6β-[(2′furanyl)carboxamido]morphinan Hydrochloride] | 67.2 ± 2.53 | – | 23.1 ± 0.97 | – | 24.2 ± 0.9 | – | –
12 | Cl.O=C(Cc1ccco1)N[C@H]1CC[C@@]2(O)[C@H]3Cc4ccc(O)c5c4[C@@]2(CCN3CC2CC2)[C@H]1O5 [Compound 15, 17-Cyclopropylmethyl-3, 14β-dihydroxy-4,5α-epoxy-6α-[(2′-furanyl)acetamido]morphinan Hydrochloride] | 63.3 ± 2.5 | – | 66.8 ± 4.24 | – | 22.6 ± 2.77 | – | –
13 | Cl.O=C(Cc1ccco1)N[C@@H]1CC[C@@]2(O)[C@H]3Cc4ccc(O)c5c4[C@@]2(CCN3CC2CC2)[C@H]1O5 [Compound 16, 17-Cyclopropylmethyl-3,14β-dihydroxy-4,5α-epoxy-6β-[(2′-furanyl)acetamido]morphinan Hydrochloride] | 49.3 ± 1.07 | – | 31.2 ± 1.49 | – | 40 ± 0.9 | – | –
14 | Cl.O=C(CCc1ccco1)N[C@H]1CC[C@@]2(O)[C@H]3Cc4ccc(O)c5c4[C@@]2(CCN3CC2CC2)[C@H]1O5 [Compound 17, 17-Cyclopropylmethyl-3, 14β-dihydroxy-4,5α-epoxy-6α-[(2′-furanyl)propanamido]morphinan Hydrochloride] | – | – | – | 4 | – | – | –
15 | Cl.O=C(CCc1ccco1)N[C@@H]1CC[C@@]2(O)[C@H]3Cc4ccc(O)c5c4[C@@]2(CCN3CC2CC2)[C@H]1O5 [Compound 18, 17-Cyclopropylmethyl-3,14β-dihydroxy-4,5α-epoxy-6β-[(2′-furanyl)propanamido]morphinan Hydrochloride] | – | – | – | 118 | – | 2 | –
16 | Cl.O=C(N[C@H]1CC[C@@]2(O)[C@H]3Cc4ccc(O)c5c4[C@@]2(CCN3CC2CC2)[C@H]1O5)c1ccoc1 [Compound 19, 17-Cyclopropylmethyl-3, 14β-dihydroxy-4,5α-epoxy-6α-[(3′-furanyl)carboxamido]morphinan Hydrochloride] | – | 18.14 ± 2.95 | – | – | – | – | –
17 | Cl.O=C(N[C@@H]1CC[C@@]2(O)[C@H]3Cc4ccc(O)c5c4[C@@]2(CCN3CC2CC2)[C@H]1O5)c1ccoc1 [Compound 20, 17-Cyclopropylmethyl-3,14β-dihydroxy-4,5α-epoxy-6β-[(3′-furanyl)carboxamido]morphinan Hydrochloride] | – | – | – | 234 | 25 ± 1.74 | 3 | –
18 | Cl.O=C(Cc1ccoc1)N[C@H]1CC[C@@]2(O)[C@H]3Cc4ccc(O)c5c4[C@@]2(CCN3CC2CC2)[C@H]1O5 [Compound 21, 17-Cyclopropylmetyl-3, 14β-dihydroxy-4,5α-epoxy-6α-[(3′-furanyl)acetamido]morphinan Hydrochloride] | – | 14.95 ± 1.46 | – | 9 | – | 15 | –
19 | Cl.O=C(Cc1ccoc1)N[C@@H]1CC[C@@]2(O)[C@H]3Cc4ccc(O)c5c4[C@@]2(CCN3CC2CC2)[C@H]1O5 [Compound 22, 17-Cyclopropylmetyl-3,14β-dihydroxy-4,5α-epoxy-6β-[(3′-furanyl)acetamido]morphinan Hydrochloride] | – | – | – | 332 | 30.8 ± 2.07 | 16.7 and 17 | –
20 | O=C(Cc1cccs1)N[C@H]1CC[C@@]2(O)[C@H]3Cc4ccc(O)c5c4[C@@]2(CCN3CC2CC2)[C@H]1O5 [Compound 27, 17-Cyclopropylmethyl-3,14β-dihydroxy-4,5α-epoxy-6α-(2′-thienylacetamido)morphinan Hydrochloride] | – | – | – | – | – | – | 6.92 ± 1.63
